According to ChEMBL document CHEMBL2439975, “Aminopropyl carbazole analogues as potent enhancers of neurogenesis” (Bioorg Med Chem, 2013):
The source made the active and inactive calls. The rule behind the calls is not given here.

Assays:
[1] = test system: NSC; experiment: Induction of differentiation of Sprague-Dawley rat embryo cortex NSC assessed as TUJ1-positive neurons at 5 uM after 4 days by immunostaining method relative to DMSO-treated control; type: functional
[2] = test system: NSC; experiment: Induction of neurogenesis of Sprague-Dawley rat embryo cortex NSC assessed as increase in beta3 tubulin mRNA expression at 5 uM after 4 days by RT-PCR method relative to DMSO-treated control; type: functional
[3] = test system: NSC; experiment: Cytotoxicity against Sprague-Dawley rat embryo cortex NSC assessed as effect on morphology at 10 uM after 4 days by DAPI-based phase-contrast microscopy relative to DMSO-treated control; type: cell-based; conditions: 96 h
[4] = test system: NSC; experiment: Cytotoxicity against Sprague-Dawley rat embryo cortex NSC assessed as cell viability at 1 to 50 uM after 2 days by MTT assay relative to DMSO-treated control; type: cell-based; conditions: 48 h
[5] = test system: NSC; experiment: Neuroprotective activity against Sprague-Dawley rat embryo cortex NSC assessed as […] of bcl2 to bax at 10 uM after 2 days by RT-PCR method relative to DMSO-treated control; type: functional, cell-based
[6] = test system: NSC; experiment: Cytotoxicity against Sprague-Dawley rat embryo cortex NSC assessed as shrinkage and rounding up of cells at 20 to 50 uM after 2 days by microscopy relative to DMSO-treated control in presence of EGF and FGF2; type: cell-based; conditions: 48 h
[7] = test system: NSC; experiment: Neuroprotective activity against Sprague-Dawley rat embryo cortex NSC assessed as reduction of bax mRNA at 10 uM after 2 days by RT-PCR method relative to DMSO-treated control; type: functional, cell-based
[8] = test system: NSC; experiment: Neuroprotective activity against Sprague-Dawley rat embryo cortex NSC assessed as reduction of bcl2 mRNA at 10 uM after 2 days by RT-PCR method relative to DMSO-treated control; type: functional, cell-based
[9] = test system: NSC; experiment: Neuroprotective activity against Sprague-Dawley rat embryo cortex NSC assessed as reduction of bax mRNA at 5 to 10 uM after 2 days by RT-PCR method relative to DMSO-treated control; type: functional, cell-based
[10] = test system: NSC; experiment: Inhibition of astrocytogenesis of Sprague-Dawley rat embryo cortex NSC assessed as downregulation of hes1 mRNA expression after 4 days by RT-PCR method relative to DMSO-treated control; type: functional, cell-based
[11] = test system: NSC; experiment: Neuroprotective activity against Sprague-Dawley rat embryo cortex NSC assessed as […] of bcl2 to bax at 5 to 10 uM after 2 days by RT-PCR method relative to DMSO-treated control; type: functional, cell-based
[12] = test system: NSC; experiment: Induction of neurogenesis of Sprague-Dawley rat embryo cortex NSC assessed as effect on morphology at 10 uM after 4 days by DAPI-based phase-contrast microscopy relative to DMSO-treated control; type: functional, cell-based
[13] = test system: NSC; experiment: Antiproliferative activity against Sprague-Dawley rat embryo cortex NSC assessed as reduction in neurosphere volume at 5 to 10 uM after 5 days by neurosphere growth assay relative to DMSO-treated control in presence of EGF and FGF2; type: functional, cell-based
[14] = test system: NSC; experiment: Inhibition of astrocytogenesis of Sprague-Dawley rat embryo cortex NSC assessed as repression of gfap mRNA expression after 4 days by RT-PCR method relative to DMSO-treated control; type: functional, cell-based
[15] = test system: NSC; experiment: Induction of neurogenesis of Sprague-Dawley rat embryo cortex NSC assessed as increase in neuroD mRNA expression after 4 days by RT-PCR method relative to DMSO-treated control; type: functional, cell-based
[16] = test system: NSC; experiment: Induction of neurogenesis of Sprague-Dawley rat embryo cortex NSC assessed as increase in beta3 tubulin mRNA expression after 4 days by RT-PCR method relative to DMSO-treated control; type: functional, cell-based
[17] = test system: NSC; experiment: Inhibition of astrocytogenesis of Sprague-Dawley rat embryo cortex NSC assessed as downregulation of notch1 mRNA expression after 4 days by RT-PCR method relative to DMSO-treated control; type: functional, cell-based
[18] = test system: NSC; experiment: Neuroprotective activity against Sprague-Dawley rat embryo cortex NSC assessed as reduction of bcl2 mRNA at 5 to 10 uM after 2 days by RT-PCR method relative to DMSO-treated control; type: functional, cell-based

| Structure (SMILES) | fold change (FC) [1] | further results |
| --- | --- | --- |
| COc1cccc(N(CC(Cn2c3ccc(Br)cc3c3cc(Br)ccc32)OC)S(=O)(=O)c2ccc(C)cc2)c1 (stereo not drawn) | 0.73 | – |
| COc1cccc(NCC(O)Cn2c3ccc(Br)cc3c3cc(Br)ccc32)c1 (stereo not drawn) | 1.16 | – |
| OC(CNc1ccc(Cl)cc1)Cn1c2ccc(Br)cc2c2cc(Br)ccc21 (stereo not drawn) | 1.29 | – |
| COc1cccc(N(Cc2ccccc2)CC(F)Cn2c3ccc(Br)cc3c3cc(Br)ccc32)c1 (stereo not drawn) | 0.58 | – |
| COc1cccc(NCC(=O)Cn2c3ccc(Br)cc3c3cc(Br)ccc32)c1 | 1.02 | – |
| OC(CNc1ccccc1)Cn1c2ccc(Br)cc2c2cc(Br)ccc21 (stereo not drawn) | 1.47 | – |
| COc1ccc(NCC(O)Cn2c3ccc(Br)cc3c3cc(Br)ccc32)cc1OC (stereo not drawn) | 1.67 | fold change (FC) [2]: 1.47; Activity [3]: Toxic |
| COc1cccc(NCC(Cn2c3ccc(Br)cc3c3cc(Br)ccc32)OC(=O)OC(C)(C)C)c1 (stereo not drawn) | 1.25 | – |
| COc1cccc(OCC(F)Cn2c3ccc(Br)cc3c3cc(Br)ccc32)c1 (stereo not drawn) | 0.87 | – |
| COc1cccc(NCC(F)Cn2c3ccc(Br)cc3c3cc(Br)ccc32)c1 (stereo not drawn) | 1.16 | Activity [4]: Non-toxic; Activity [5]: Active; Activity [6]: Toxic; Activity [7]: inactive; Activity [8]: Active |
| COc1cccc(N(CC(O)Cn2c3ccc(Br)cc3c3cc(Br)ccc32)C(C)=O)c1 (stereo not drawn) | 1.25 | – |
| OC(CNc1ccc2c(c1)OCO2)Cn1c2ccc(Br)cc2c2cc(Br)ccc21 (stereo not drawn) | 0.88 | – |
| COc1ccc(NCC(O)Cn2c3ccc(Br)cc3c3cc(Br)ccc32)cc1 (stereo not drawn) | 1.17 | – |
| COc1cccc(NCC(F)Cn2c3ccccc3c3cc(Br)ccc32)c1 (stereo not drawn) | 0.86 | – |
| COc1cccc(N(C)CC(O)Cn2c3ccc(Br)cc3c3cc(Br)ccc32)c1 (stereo not drawn) | 1.42 | – |
| COc1cccc(NCC(Cn2c3ccc(Br)cc3c3cc(Br)ccc32)OC)c1 (stereo not drawn) | 0.96 | – |
| COc1cccc(OCC(O)Cn2c3ccc(Br)cc3c3cc(Br)ccc32)c1 (stereo not drawn) | 1.12 | – |
| COc1cccc(NC/C(Cn2c3ccc(Br)cc3c3cc(Br)ccc32)=N\O)c1 | 1.13 | – |
| COc1cccc(N(CC(Cn2c3ccc(Br)cc3c3cc(Br)ccc32)OC(C)=O)S(=O)(=O)c2ccc(C)cc2)c1 (stereo not drawn) | 0.65 | – |
| COc1cccc(NCC(Cn2c3ccccc3c3ccccc32)OC(C)=O)c1 (stereo not drawn) | 0.39 | – |
| COc1cccc(N(CC(O)Cn2c3ccc(Br)cc3c3cc(Br)ccc32)S(=O)(=O)c2ccc(C)cc2)c1 (stereo not drawn) | 1.52 | Activity [9]: Active; fold change (FC) [2]: 1.43; inhibition [10]: Dose-dependent effect; Activity [11]: Active; Activity [12]: Active; Activity [4]: Non-toxic; Activity [13]: Active; inhibition [14]: Dose-dependent effect; Activity [15]: Dose-dependent effect; Activity [16]: Dose-dependent effect; Activity [6]: Non-toxic; inhibition [17]: Dose-dependent effect; Activity [18]: Active |
| COc1cccc(N(CC(=O)Cn2c3ccc(Br)cc3c3cc(Br)ccc32)S(=O)(=O)c2ccc(C)cc2)c1 | 0.52 | – |
| COc1cccc(N(CC(Cn2c3ccc(Br)cc3c3cc(Br)ccc32)OC)S(=O)(=O)c2ccc([N+](=O)[O-])cc2)c1 (stereo not drawn) | 0.92 | – |
| COc1cccc(NCC(Cn2c3ccc(Br)cc3c3cc(Br)ccc32)OC(C)=O)c1 (stereo not drawn) | 0.63 | – |
| COc1cccc(NCC(F)Cn2c3ccccc3c3ccccc32)c1 (stereo not drawn) | 1.07 | – |
| COc1cccc(N(Cc2ccccc2)CC(O)Cn2c3ccc(Br)cc3c3cc(Br)ccc32)c1 (stereo not drawn) | 0.57 | – |
| Cc1ccc(NCC(O)Cn2c3ccc(Br)cc3c3cc(Br)ccc32)cc1 (stereo not drawn) | 1.88 | Activity [3]: Toxic |
